Read-outs that look alike come from different tables or passages of the source.
How the values were obtained:
[1] = test system: phospho-Akt in BxPC-3 pancreatic cancer cells; conditions: hits experimentally tested and confirmed active; cited from earlier work
[2] = test system: phospho-Akt in BxPC-3 pancreatic cancer cells; assay: Cell inhibition of phospho-Akt in BxPC-3 pancreatic cancer cells; format: cell-based; conditions: for IC50: Homo sapiens, BXPC-3, read-out: IC50 (Akt inhibition)
Caco-2 = conditions: curated dataset; cited from earlier work

| Structure (SMILES) | IC50 [2] | Caco-2 permeability, experimental (Caco-2) | other results |
| --- | --- | --- | --- |
| Cc1nnc(NS(=O)(=O)c2ccc(NS(=O)(=O)c3ccc4ccccc4c3)cc2)s1 [Compound 9] | – | – | IC50 [1]: 20 µM |
| CC(=O)Nc1ccc(S(=O)(=O)Nc2nncs2)cc1 [Compound 11] | > 50 µM | – | IC50 (Akt inhibition) ([2]; BxPC-3 cells, phospho-Akt): no activity |
| COCCOCCOCC(=O)Nc1ccc(S(=O)(=O)Nc2nncs2)cc1 [Compound 12] | > 50 µM | – | – |
| CCCCCCCCCC(=O)Nc1ccc(S(=O)(=O)Nc2nncs2)cc1 [Compound 13] | 10 µM | – | – |
| CO/N=C(\C(=O)N[C@@H]1C(=O)N2C(C(=O)O)=C(CSc3nc(=O)c(O)nn3C)CS[C@H]12)c1csc(N)n1 [cerftriaxone] | – | 0.13 ×10⁻⁶ cm/s | – |
| COc1cccc2c1C(=O)c1c(O)c3c(c(O)c1C2=O)C[C@@](O)(C(=O)CO)C[C@@H]3O[C@H]1C[C@H](N)[C@H](O)[C@H](C)O1 [doxorubicin] | – | 0.16 ×10⁻⁶ cm/s | – |
| CC(C)Cc1ccc(C(C)C(=O)O)cc1 (stereo not shown) [ibuprofen] | – | 52.5 ×10⁻⁶ cm/s | – |
| CN1CCN(CC(=O)N2c3ccccc3C(=O)Nc3cccnc32)CC1 [pirenzepine] | – | 0.437 ×10⁻⁶ cm/s | – |
| C[C@H]1[C@H](OC(=O)CCC(=O)O)O[C@@H]2O[C@@]3(C)CC[C@H]4[C@H](C)CC[C@@H]1[C@@]24OO3 [sodium artesunate] | – | 3.98 ×10⁻⁶ cm/s | – |

From article PMC2808703 (Bioorganic & medicinal chemistry, 2009)
